# According to PubChem BioAssay AID2060612 (Molecular Pharmacology Branch, DTP, NCI, 2025):
# Values joined by “and” are separate entries in the source; they are usually repeats but may differ in a detail not shown here. Equal values may be shown once.
# Test system: 565232-114-T-J1-PDC complex spheroid viability
# Test: Anticancer human tumor 565232-114-T-J1-PDC patient-derived bladder carcinoma cell line growth inhibition [CLK]
# Conditions: for viability, T/C: stronger effect = lower value
# In short: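 Patient-derived tumor cells grown as complex spheroids with HUVEC endothelial cells and mesenchymal stem cells, treated with drug combinations. Concentrations descend in half-log steps from near clinical Cmax, or from 10 microM if Cmax unknown.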
# [1] = curve of first compound, second compound 0.0316 µM
# [2] = curve of first compound, second compound 0.1 µM
# [3] = curve of first compound, second compound 0.316 µM
# [4] = curve of first compound, second compound 1 µM
# [5] = curve of first compound, second compound 3.16 µM
# [6] = curve of first compound, second compound 10 µM
# [7] = second compound 0.0316 µM, first compound 0.0316 µM
# [8] = second compound 0.0316 µM, first compound 0.1 µM
# [9] = second compound 0.0316 µM, first compound 0.316 µM
# [10] = second compound 0.0316 µM, first compound 1 µM
# [11] = second compound 0.0316 µM, first compound 3.16 µM
# [12] = second compound 0.0316 µM, first compound 10 µM
# [13] = second compound 0.1 µM, first compound 0.0316 µM
# [14] = second compound 0.1 µM, first compound 0.1 µM
# [15] = second compound 0.1 µM, first compound 0.316 µM
# [16] = second compound 0.1 µM, first compound 1 µM
# [17] = second compound 0.1 µM, first compound 3.16 µM
# [18] = second compound 0.1 µM, first compound 10 µM
# [19] = second compound 0.316 µM, first compound 0.0316 µM
# [20] = second compound 0.316 µM, first compound 0.1 µM
# [21] = second compound 0.316 µM, first compound 0.316 µM
# [22] = second compound 0.316 µM, first compound 1 µM
# [23] = second compound 0.316 µM, first compound 3.16 µM
# [24] = second compound 0.316 µM, first compound 10 µM
# [25] = second compound 1 µM, first compound 0.0316 µM
# [26] = second compound 1 µM, first compound 0.1 µM
# [27] = second compound 1 µM, first compound 0.316 µM
# [28] = second compound 1 µM, first compound 1 µM
# [29] = second compound 1 µM, first compound 3.16 µM
# [30] = second compound 1 µM, first compound 10 µM
# [31] = second compound 3.16 µM, first compound 0.0316 µM
# [32] = second compound 3.16 µM, first compound 0.1 µM
# [33] = second compound 3.16 µM, first compound 0.316 µM
# [34] = second compound 3.16 µM, first compound 1 µM
# [35] = second compound 3.16 µM, first compound 3.16 µM
# [36] = second compound 3.16 µM, first compound 10 µM
# [37] = second compound 10 µM, first compound 0.0316 µM
# [38] = second compound 10 µM, first compound 0.1 µM
# [39] = second compound 10 µM, first compound 0.316 µM
# [40] = second compound 10 µM, first compound 1 µM
# [41] = second compound 10 µM, first compound 3.16 µM
# [42] = second compound 10 µM, first compound 10 µM
# 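Note: spheroids exposed to compounds for 7 days before readout.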
# 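Throughout, for viability, T/C: 100% = DMSO vehicle wells with luminescence normalized to vehicle control.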
smiles,measurement,setting,value
O=C(c1cc(Cc2n[nH]c(=O)c3ccccc23)ccc1F)N1CCN(C(=O)C2CC2)CC1 + CNC(=O)c1ccc(Nc2nc(OC3CCCC3)c3c(-c4ccc5nc(C)oc5c4)c[nH]c3n2)c(OC)c1,IC50,[1],> 10000 nM
same,IC50,[2],1500 nM
same,IC50,[3],< 31.6 nM
same,IC50,[4],< 31.6 nM
same,IC50,[5],< 31.6 nM
same,IC50,[6],< 31.6 nM
same,"viability, T/C",[7],81.7%
same,"viability, T/C",[8],85.9%
same,"viability, T/C",[9],87.8%
same,"viability, T/C",[10],82.8%
same,"viability, T/C",[11],104%
same,"viability, T/C",[12],64.8%
same,"viability, T/C",[13],49%
same,"viability, T/C",[14],52.6%
same,"viability, T/C",[15],63.5%
same,"viability, T/C",[16],48.8%
same,"viability, T/C",[17],45.7%
same,"viability, T/C",[18],34%
same,"viability, T/C",[19],36.4%
same,"viability, T/C",[20],40.3%
same,"viability, T/C",[21],30.4%
same,"viability, T/C",[22],32.4%
same,"viability, T/C",[23],33.4%
same,"viability, T/C",[24],30.2%
same,"viability, T/C",[25],24%
same,"viability, T/C",[26],26.8%
same,"viability, T/C",[27],23.2%
same,"viability, T/C",[28],22.8%
same,"viability, T/C",[29],27.1%
same,"viability, T/C",[30],24.8%
same,"viability, T/C",[31],22.5%
same,"viability, T/C",[32],23.4%
same,"viability, T/C",[33],21.3%
same,"viability, T/C",[34],21.7%
same,"viability, T/C",[35],22.4%
same,"viability, T/C",[36],19.3%
same,"viability, T/C",[37],23.2%
same,"viability, T/C",[38],25.5%
same,"viability, T/C",[39],16.5%
same,"viability, T/C",[40],22.3%
same,"viability, T/C",[41],21%
same,"viability, T/C",[42],18.2%
C=C(F)C(=O)N1CCN(c2nc(OCC3CCCN3C)nc3c2CCN(c2cccc4cccc(Cl)c24)C3)CC1CC#N (stereo not drawn),"viability, T/C",compound 0.0316 µM,103%
same,"viability, T/C",compound 0.1 µM,103%
same,"viability, T/C",compound 0.316 µM,88.9%
same,"viability, T/C",compound 1 µM,109%
same,"viability, T/C",compound 3.16 µM,105%
same,"viability, T/C",compound 10 µM,0.24%
same,IC50,curve of compound,5680 nM
C#Cc1c(F)ccc2cc(O)cc(-c3ncc4c(N5CC6CCC(C5)N6)nc(OCC56CCCN5CC(F)C6)nc4c3F)c12 (stereo not drawn),"viability, T/C",compound 0.0316 µM,106% and 77.8%
same,"viability, T/C",compound 0.1 µM,92.2% and 83.3%
same,"viability, T/C",compound 0.316 µM,103% and 102%
same,"viability, T/C",compound 1 µM,93.2% and 110%
same,"viability, T/C",compound 3.16 µM,98.7% and 94.8%
same,"viability, T/C",compound 10 µM,93% and 95.2%
same,IC50,curve of compound,> 10000 nM
O=C(c1cc(Cc2n[nH]c(=O)c3ccccc23)ccc1F)N1CCN(C(=O)C2CC2)CC1 + CN1CCN(c2cc(C(=O)Nc3cc4cc(-c5cnn(C)c5)ccc4cn3)ccn2)CC1,IC50,[1],> 10000 nM
same,IC50,[2],> 10000 nM
same,IC50,[3],< 31.6 nM
same,IC50,[4],< 31.6 nM
same,IC50,[5],< 31.6 nM
same,IC50,[6],< 31.6 nM
same,"viability, T/C",[7],110%
same,"viability, T/C",[8],117%
same,"viability, T/C",[9],109%
same,"viability, T/C",[10],94.4%
same,"viability, T/C",[11],128%
same,"viability, T/C",[12],130%
same,"viability, T/C",[13],122%
same,"viability, T/C",[14],106%
same,"viability, T/C",[15],139%
same,"viability, T/C",[16],115%
same,"viability, T/C",[17],148%
same,"viability, T/C",[18],108%
same,"viability, T/C",[19],23.3%
same,"viability, T/C",[20],22.6%
same,"viability, T/C",[21],24.8%
same,"viability, T/C",[22],20.1%
same,"viability, T/C",[23],19.8%
same,"viability, T/C",[24],16%
same,"viability, T/C",[25],0.19%
same,"viability, T/C",[26],1.21%
same,"viability, T/C",[27],0.25%
same,"viability, T/C",[28],0.17%
same,"viability, T/C",[29],0.18%
same,"viability, T/C",[30],0.19%
same,"viability, T/C",[31],0.15%
same,"viability, T/C",[32],0.29%
same,"viability, T/C",[33],1.69%
same,"viability, T/C",[34],0.26%
same,"viability, T/C",[35],2.21%
same,"viability, T/C",[36],4.24%
same,"viability, T/C",[37],1.42%
same,"viability, T/C",[38],0.19%
same,"viability, T/C",[39],3.03%
same,"viability, T/C",[40],0.19%
same,"viability, T/C",[41],0.25%
same,"viability, T/C",[42],0.28%
